Measurements taken from PubChem BioAssay AID1963969 (Molecular Pharmacology Branch, DTP, NCI, 2024).

Test system: 817829-284-R-J1-PDC multi-cell spheroid viability
Test: Anticancer human tumor 817829-284-R-J1-PDC patient-derived colon adenocarcinoma cell line growth inhibition [PI3K]
Conditions: for IC50: curve of first compound; for viability, T/C: stronger effect = lower value
Method in brief: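 Complex 3D spheroids (cancer cells + endothelial HUVEC + mesenchymal stem cells); drug pairs of targeted agent x inavolisib/alpelisib/duvelisib/copanlisib; half-log series from ~Cmax, max 10 microM if Cmax unknown; endpoint viability.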

[1] = second compound 0.00316 µM, first compound 0.0316 µM
[2] = second compound 0.00316 µM, first compound 0.1 µM
[3] = second compound 0.00316 µM, first compound 0.316 µM
[4] = second compound 0.00316 µM, first compound 1 µM
[5] = second compound 0.00316 µM, first compound 3.16 µM
[6] = second compound 0.00316 µM, first compound 10 µM
[7] = second compound 0.01 µM, first compound 0.0316 µM
[8] = second compound 0.01 µM, first compound 0.1 µM
[9] = second compound 0.01 µM, first compound 0.316 µM
[10] = second compound 0.01 µM, first compound 1 µM
[11] = second compound 0.01 µM, first compound 3.16 µM
[12] = second compound 0.01 µM, first compound 10 µM
[13] = second compound 0.0316 µM, first compound 0.0316 µM
[14] = second compound 0.0316 µM, first compound 0.1 µM
[15] = second compound 0.0316 µM, first compound 0.316 µM
[16] = second compound 0.0316 µM, first compound 1 µM
[17] = second compound 0.0316 µM, first compound 3.16 µM
[18] = second compound 0.0316 µM, first compound 10 µM
[19] = second compound 0.1 µM, first compound 0.0316 µM
[20] = second compound 0.1 µM, first compound 0.1 µM
[21] = second compound 0.1 µM, first compound 0.316 µM
[22] = second compound 0.1 µM, first compound 1 µM
[23] = second compound 0.1 µM, first compound 3.16 µM
[24] = second compound 0.1 µM, first compound 10 µM
[25] = second compound 0.316 µM, first compound 0.0316 µM
[26] = second compound 0.316 µM, first compound 0.1 µM
[27] = second compound 0.316 µM, first compound 0.316 µM
[28] = second compound 0.316 µM, first compound 1 µM
[29] = second compound 0.316 µM, first compound 3.16 µM
[30] = second compound 0.316 µM, first compound 10 µM
[31] = second compound 1 µM, first compound 0.0316 µM
[32] = second compound 1 µM, first compound 0.1 µM
[33] = second compound 1 µM, first compound 0.316 µM
[34] = second compound 1 µM, first compound 1 µM
[35] = second compound 1 µM, first compound 3.16 µM
[36] = second compound 1 µM, first compound 10 µM
[37] = second compound 3.16 µM, first compound 0.0316 µM
[38] = second compound 3.16 µM, first compound 0.1 µM
[39] = second compound 10 µM, first compound 0.0316 µM
[40] = second compound 10 µM, first compound 0.1 µM
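Further: spheroids exposed to agents for seven days before readout.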
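Wherever viability, T/C is given: percent of vehicle DMSO control viability which is 100%.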

SMILES: C#Cc1c(F)ccc2cc(O)cc(-c3ncc4c(N5CC6CCC(C5)N6)nc(OCC56CCCN5CC(F)C6)nc4c3F)c12 (stereo not drawn) + CC(Nc1ccc2c(c1)OCCn1cc(N3C(=O)OCC3C(F)F)nc1-2)C(N)=O
- IC50 (second compound 0.00316 µM): 8670 nM
- IC50 (second compound 0.01 µM): 5160 nM
- IC50 (second compound 0.0316 µM): > 10000 nM
- IC50 (second compound 0.1 µM): > 10000 nM
- IC50 (second compound 0.316 µM): 4350 nM
- IC50 (second compound 1 µM): < 31.6 nM
- viability, T/C [1]: 83.7%
- viability, T/C [2]: 75.3%
- viability, T/C [3]: 87.4%
- viability, T/C [4]: 77.4%
- viability, T/C [5]: 69.9%
- viability, T/C [6]: 47.2%
- viability, T/C [7]: 90%
- viability, T/C [8]: 84.8%
- viability, T/C [9]: 72.7%
- viability, T/C [10]: 79.9%
- viability, T/C [11]: 56.1%
- viability, T/C [12]: 38.3%
- viability, T/C [13]: 74.9%
- viability, T/C [14]: 69.8%
- viability, T/C [15]: 58.5%
- viability, T/C [16]: 65.9%
- viability, T/C [17]: 63.5%
- viability, T/C [18]: 47.8%
- viability, T/C [19]: 64.9%
- viability, T/C [20]: 79.8%
- viability, T/C [21]: 56.1%
- viability, T/C [22]: 80.5%
- viability, T/C [23]: 77.8%
- viability, T/C [24]: 39%
- viability, T/C [25]: 53.5%
- viability, T/C [26]: 83.5%
- viability, T/C [27]: 48.6%
- viability, T/C [28]: 71.2%
- viability, T/C [29]: 54.7%
- viability, T/C [30]: 32.2%
- viability, T/C [31]: 45.1%
- viability, T/C [32]: 45.3%
- viability, T/C [33]: 47.8%
- viability, T/C [34]: 60.3%
- viability, T/C [35]: 59.9%
- viability, T/C [36]: 30.2%

SMILES: CC1(C)CCC(Nc2ncc(C(F)(F)F)c(-c3c[nH]c4c(P(C)(C)=O)c(C#N)ccc34)n2)CN1 (stereo not drawn) + CC(Nc1ccc2c(c1)OCCn1cc(N3C(=O)OCC3C(F)F)nc1-2)C(N)=O
- IC50 (second compound 0.00316 µM): < 31.6 nM
- IC50 (second compound 0.01 µM): < 31.6 nM
- IC50 (second compound 0.0316 µM): < 31.6 nM
- IC50 (second compound 0.1 µM): < 31.6 nM
- IC50 (second compound 0.316 µM): < 31.6 nM
- IC50 (second compound 1 µM): < 31.6 nM
- viability, T/C [1]: 27.5%
- viability, T/C [2]: 24.9%
- viability, T/C [3]: 36.7%
- viability, T/C [4]: 28.7%
- viability, T/C [5]: 30%
- viability, T/C [6]: 0.96%
- viability, T/C [7]: 26.9%
- viability, T/C [8]: 25.7%
- viability, T/C [9]: 25.2%
- viability, T/C [10]: 33.6%
- viability, T/C [11]: 26.4%
- viability, T/C [12]: 1.03%
- viability, T/C [13]: 24.1%
- viability, T/C [14]: 28.1%
- viability, T/C [15]: 25.9%
- viability, T/C [16]: 32%
- viability, T/C [17]: 24.6%
- viability, T/C [18]: 0.85%
- viability, T/C [19]: 25.2%
- viability, T/C [20]: 28.4%
- viability, T/C [21]: 32.1%
- viability, T/C [22]: 27.7%
- viability, T/C [23]: 29.2%
- viability, T/C [24]: 1.66%
- viability, T/C [25]: 23.4%
- viability, T/C [26]: 28.7%
- viability, T/C [27]: 26%
- viability, T/C [28]: 22.8%
- viability, T/C [29]: 27.9%
- viability, T/C [30]: 1.09%
- viability, T/C [31]: 21.7%
- viability, T/C [32]: 24.1%
- viability, T/C [33]: 25.8%
- viability, T/C [34]: 26.2%
- viability, T/C [35]: 26.6%
- viability, T/C [36]: 1.56%

SMILES: CC(=O)c1c(C)c2cnc(Nc3ccc(N4CCNCC4)cn3)nc2n(C2CCCC2)c1=O + CC(Nc1ncnc2nc[nH]c12)c1cc2cccc(Cl)c2c(=O)n1-c1ccccc1
- IC50 (second compound 0.0316 µM): 70.9 nM
- IC50 (second compound 0.1 µM): 74 nM
- IC50 (second compound 0.316 µM): > 100 nM
- IC50 (second compound 1 µM): 71.2 nM
- IC50 (second compound 3.16 µM): 14.3 nM
- IC50 (second compound 10 µM): 33.4 nM
- viability, T/C (second compound 0.0316 µM, first compound 0.000316 µM): 96%
- viability, T/C (second compound 0.0316 µM, first compound 0.001 µM): 68.1%
- viability, T/C (second compound 0.0316 µM, first compound 0.00316 µM): 74.3%
- viability, T/C (second compound 0.0316 µM, first compound 0.01 µM): 75.4%
- viability, T/C [13]: 77%
- viability, T/C [14]: 38.6%
- viability, T/C (second compound 0.1 µM, first compound 0.000316 µM): 92.5%
- viability, T/C (second compound 0.1 µM, first compound 0.001 µM): 79.8%
- viability, T/C (second compound 0.1 µM, first compound 0.00316 µM): 74.5%
- viability, T/C (second compound 0.1 µM, first compound 0.01 µM): 90.2%
- viability, T/C [19]: 79%
- viability, T/C [20]: 39.4%
- viability, T/C (second compound 0.316 µM, first compound 0.000316 µM): 90.8%
- viability, T/C (second compound 0.316 µM, first compound 0.001 µM): 85%
- viability, T/C (second compound 0.316 µM, first compound 0.00316 µM): 101%
- viability, T/C (second compound 0.316 µM, first compound 0.01 µM): 60.2%
- viability, T/C [25]: 56.5%
- viability, T/C [26]: 51.3%
- viability, T/C (second compound 1 µM, first compound 0.000316 µM): 101%
- viability, T/C (second compound 1 µM, first compound 0.001 µM): 73.1%
- viability, T/C (second compound 1 µM, first compound 0.00316 µM): 78.7%
- viability, T/C (second compound 1 µM, first compound 0.01 µM): 83.5%
- viability, T/C [31]: 59.8%
- viability, T/C [32]: 43.5%
- viability, T/C (second compound 3.16 µM, first compound 0.000316 µM): 65%
- viability, T/C (second compound 3.16 µM, first compound 0.001 µM): 134%
- viability, T/C (second compound 3.16 µM, first compound 0.00316 µM): 78.8%
- viability, T/C (second compound 3.16 µM, first compound 0.01 µM): 57.5%
- viability, T/C [37]: 37.8%
- viability, T/C [38]: 42.7%
- viability, T/C (second compound 10 µM, first compound 0.000316 µM): 60.1%
- viability, T/C (second compound 10 µM, first compound 0.001 µM): 54.4%
- viability, T/C (second compound 10 µM, first compound 0.00316 µM): 51%
- viability, T/C (second compound 10 µM, first compound 0.01 µM): 66.3%
- viability, T/C [39]: 46.6%
- viability, T/C [40]: 34.4%

SMILES: CCCS(=O)(=O)Nc1ccc(F)c(C(=O)c2c[nH]c3ncc(-c4ccc(Cl)cc4)cc23)c1F + CC(Nc1ncnc2nc[nH]c12)c1cc2cccc(Cl)c2c(=O)n1-c1ccccc1
- IC50 (second compound 0.0316 µM): 4760 nM
- IC50 (second compound 0.1 µM): 4210 nM
- IC50 (second compound 0.316 µM): 3330 nM
- IC50 (second compound 1 µM): 4310 nM
- IC50 (second compound 3.16 µM): 1350 nM
- IC50 (second compound 10 µM): 1790 nM
- viability, T/C [13]: 110%
- viability, T/C [14]: 61.7%
- viability, T/C [15]: 62.3%
- viability, T/C [16]: 52%
- viability, T/C [17]: 90.5%
- viability, T/C [18]: 4.04%
- viability, T/C [19]: 78%
- viability, T/C [20]: 72.6%
- viability, T/C [21]: 72.7%
- viability, T/C [22]: 89%
- viability, T/C [23]: 63.9%
- viability, T/C [24]: 7.99%
- viability, T/C [25]: 98.2%
- viability, T/C [26]: 70%
- viability, T/C [27]: 101%
- viability, T/C [28]: 60.6%
- viability, T/C [29]: 57.8%
- viability, T/C [30]: 4.81%
- viability, T/C [31]: 66.9%
- viability, T/C [32]: 70.5%
- viability, T/C [33]: 87%
- viability, T/C [34]: 38.3%
- viability, T/C [35]: 68.3%
- viability, T/C [36]: 6.14%
- viability, T/C [37]: 114%
- viability, T/C [38]: 89%
- viability, T/C (second compound 3.16 µM, first compound 0.316 µM): 68.6%
- viability, T/C (second compound 3.16 µM, first compound 1 µM): 59%
- viability, T/C (second compound 3.16 µM, first compound 3.16 µM): 47.2%
- viability, T/C (second compound 3.16 µM, first compound 10 µM): 8.3%
- viability, T/C [39]: 72.4%
- viability, T/C [40]: 75.2%
- viability, T/C (second compound 10 µM, first compound 0.316 µM): 68.9%
- viability, T/C (second compound 10 µM, first compound 1 µM): 49.8%
- viability, T/C (second compound 10 µM, first compound 3.16 µM): 47.7%
- viability, T/C (second compound 10 µM, first compound 10 µM): 9.39%
